Data as given in publication doi:10.1101/2021.10.07.463234v2 (biorxiv, 2021).
Counter-ions that a name gives are not always drawn.

Target: SARS-CoV-2 Mac1 (Severe acute respiratory syndrome coronavirus 2, UniProt P0DTD1)
Assay: biochemical
Conditions: for %inhibition: 100 µM, inhibitor; for inhibition at 100 µM: read-out: %inhibition

| Compound | %inhibition [%] | inhibition at 100 µM [%] |
| --- | --- | --- |
| O=C(NC1CCN(CCCCC2(C(=O)NCC(F)(F)F)c3ccccc3-c3ccccc32)CC1)c1ccccc1-c1ccc(C(F)(F)F)cc1 [Lomitapide Mesylate] | 34.98 | – |
| O=C(NC1CCN(CCCCC2(C(=O)NCC(F)(F)F)c3ccccc3-c3ccccc32)CC1)c1ccccc1-c1ccc(C(F)(F)F)cc1 [Lomitapide] | – | 17.8 |
| NC(=O)N1CCC(CC(=O)N2CCC([C@H]3c4ncc(Br)cc4CCc4cc(Cl)cc(Br)c43)CC2)CC1 [Lonafarnib] | – | 29.6 |
| O=C(O)c1nn(Cc2ccc(Cl)cc2Cl)c2ccccc12 [Lonidamine] | – | 7.38 |
| Cc1cccc(C)c1OCC(=O)N[C@@H](Cc1ccccc1)[C@@H](O)C[C@H](Cc1ccccc1)NC(=O)[C@H](C(C)C)N1CCCNC1=O [Lopinavir] | – | 0 |
| CN1C(C(=O)Nc2ccccn2)=C(O)c2sc(Cl)cc2S1(=O)=O [Lornoxicam] | – | 18.3 |
| CCCCc1nc(Cl)c(CO)n1Cc1ccc(-c2ccccc2-c2nnn[nH]2)cc1 [Losartan Potassium (DuP 753)] | 0 | – |
| CCCCc1nc(Cl)c(CO)n1Cc1ccc(-c2ccccc2-c2nnn[nH]2)cc1 [Losartan] | 18.38 | – |
| Cc1c(F)cc(C(=O)NC2CC2)cc1-c1ccc(C(=O)NCC(C)(C)C)cn1 [Losmapimod (GW856553X)] | – | 0 |
| CCOC(=O)O[C@]1(C(=O)OCCl)CC[C@H]2[C@@H]3CCC4=CC(=O)C=C[C@]4(C)[C@H]3[C@@H](O)C[C@@]21C [Loteprednol etabonate] | – | 0 |
| CC[C@H](C)C(=O)O[C@H]1C[C@@H](C)C=C2C=C[C@H](C)[C@H](CC[C@@H]3C[C@@H](O)CC(=O)O3)[C@H]21 [Lovastatin] | – | 0 |
| CN1CCN(C2=Nc3ccccc3Oc3ccc(Cl)cc32)CC1 [Loxapine Succinate] | – | 30.4 |
| CC(C(=O)O)c1ccc(CC2CCCC2=O)cc1 (centres unmarked) [Loxoprofen Sodium] | 0 | – |
| CC(C(=O)O)c1ccc(CC2CCCC2=O)cc1 (centres unmarked) [Loxoprofen] | 5.364 | – |
| CCCCC(F)(F)[C@@]1(O)CC[C@H]2[C@@H](CC(=O)[C@@H]2CCCCCCC(=O)O)O1 [Lubiprostone] | – | 13.8 |
| N#C/C(=C1/SC[C@@H](c2ccc(Cl)cc2Cl)S1)n1ccnc1 [Luliconazole] | – | 24.1 |
| CCCCN(CCCC)CC(O)c1cc(Cl)cc2c1-c1ccc(Cl)cc1/C2=C/c1ccc(Cl)cc1 (centres unmarked) [Lumefantrine] | – | 0 |
| CCCNS(=O)(=O)Nc1ncnc(OCCOc2ncc(Br)cn2)c1-c1ccc(Br)cc1 [Macitentan] | – | 10 |
| NCc1ccc(S(N)(=O)=O)cc1 [Mafenide Acetate] | 0 | – |
| NCc1ccc(S(N)(=O)=O)cc1 [Mafenide hydrochloride] | 8.456 | – |
| CC(C)OC(=O)C(C(=O)OC(C)C)=C1SC=CS1 [Malotilate] | – | 0.00863 |

| Compound | %inhibition [%] | inhibition at 100 µM [%] |
| --- | --- | --- |
| Cc1occc(=O)c1O [Maltol] | – | 15.5 |
| COC(=O)C1=C(C)NC(C)=C(C(=O)OCCN2CCN(C(c3ccccc3)c3ccccc3)CC2)C1c1cccc([N+](=O)[O-])c1 (centres unmarked) [Manidipine 2HCl] | – | 0 |
| Cc1nnc(C(C)C)n1[C@@H]1C[C@H]2CC[C@@H](C1)N2CC[C@H](NC(=O)C1CCC(F)(F)CC1)c1ccccc1 [Maraviroc] | – | 24.2 |
| CN1CCN(c2c(F)cc3c(=O)c(C(=O)O)cn4c3c2OCN4C)CC1 [Marbofloxacin] | – | 18.3 |
| CNC(=O)[C@@H](NC(=O)[C@H](CC(C)C)[C@H](O)C(=O)NO)C(C)(C)C [Marimastat (BB-2516)] | – | 3.16 |
| Cc1ccc(NC(=O)c2ccc(CN3CCN(C)CC3)cc2)cc1Nc1nc(-c2cccnc2)cs1 [Masitinib (AB1010)] | – | 7.66 |
| COC(=O)Nc1nc2cc(C(=O)c3ccccc3)ccc2[nH]1 [Mebendazole] | – | 0 |
| CCN(CCCCOC(=O)c1ccc(OC)c(OC)c1)C(C)Cc1ccc(OC)cc1 (centres unmarked) [Mebeverine Hydrochloride] | – | 5.64 |
| CCOC(=O)c1c(C)n(C)c2ccc(O)cc12 [Mecarbinate] | – | 0 |
| Cc1cccc(CN2CCN(C(c3ccccc3)c3ccc(Cl)cc3)CC2)c1 (centres unmarked) [Meclizine 2HCl] | – | 9.09 |
| Cc1ccc(Cl)c(Nc2ccccc2C(=O)O)c1Cl [Meclofenamate Sodium] | – | 5.23 |
| CN(C)CCOC(=O)COc1ccc(Cl)cc1 [Meclofenoxate (Centrophenoxine) HCl] | – | 16.9 |
| Cc1cccc(C(C)c2c[nH]cn2)c1C (centres unmarked) [Medetomidine HCl] | – | 21.9 |
| CC(=O)O[C@]1(C(C)=O)CC[C@H]2[C@@H]3C[C@H](C)C4=CC(=O)CC[C@]4(C)[C@H]3CC[C@@]21C [Medroxyprogesterone acetate] | – | 26.1 |
| Cc1cccc(Nc2ccccc2C(=O)O)c1C [Mefenamic Acid] | – | 21 |
| O[C@@H](c1cc(C(F)(F)F)nc2c(C(F)(F)F)cccc12)[C@H]1CCCCN1 [Mefloquine HCl] | – | 0 |
| CC(=O)O[C@]1(C(C)=O)CC[C@H]2[C@@H]3C=C(C)C4=CC(=O)CC[C@]4(C)[C@H]3CC[C@@]21C [Megestrol Acetate] | – | 23.5 |
| CNC[C@H](O)[C@@H](O)[C@H](O)[C@H](O)CO [Meglumine] | – | 15.6 |
| COc1ccc2[nH]cc(CCNC(C)=O)c2c1 [Melatonin] | – | 9.33 |
| Cc1cnc(NC(=O)C2=C(O)c3ccccc3S(=O)(=O)N2C)s1 [Meloxicam] | – | 41.6 |
| N[C@@H](Cc1ccc(N(CCCl)CCCl)cc1)C(=O)O [Melphalan] | – | 3.44 |

| Compound | %inhibition [%] | inhibition at 100 µM [%] |
| --- | --- | --- |
| CC12CC3CC(C)(C1)CC(N)(C3)C2 [Memantine HCl] | – | 0 |
| CC1=CC(=O)c2ccccc2C1=O [Menadione] | – | 1.18 |
| C[N+]1(C)CCCC(OC(=O)C(O)(c2ccccc2)c2ccccc2)C1 (centres unmarked) [Mepenzolate Bromide] | – | 0 |
| Cc1ccccc1OCC(O)CO (centres unmarked) [Mephenesin] | – | 7.81 |
| [O-][n+]1cccc(CO)c1 [Mepiroxol] | – | 12.3 |
| Cc1cccc(C)c1NC(=O)C1CCCCN1C (centres unmarked) [Mepivacaine HCl] | 2.617 | – |
| Cc1cccc(C)c1NC(=O)C1CCCCN1C (centres unmarked) [Mepivacaine] | 0 | – |
| C[C@H]1C[C@H]2[C@@H]3CCC4=CC(=O)C=C[C@]4(C)[C@H]3C(=O)C[C@]2(C)[C@@]1(O)C(=O)CO [Meprednisone] | – | 8.14 |
| CCC1(c2cccc(O)c2)CCCCN(C)C1 (centres unmarked) [Meptazinol HCl] | – | 0 |
| COc1ccc(O)cc1 [Mequinol] | – | 0 |
| S=c1[nH]cnc2nc[nH]c12 [Mercaptopurine (6-MP)] | – | 19.8 |
| C[C@@H](O)[C@H]1C(=O)N2C(C(=O)O)=C(S[C@@H]3CN[C@H](C(=O)N(C)C)C3)[C@H](C)[C@H]12 [Meropenem Trihydrate] | 21.42 | – |
| C[C@@H](O)[C@H]1C(=O)N2C(C(=O)O)=C(S[C@@H]3CN[C@H](C(=O)N(C)C)C3)[C@H](C)[C@H]12 [Meropenem] | 0 | – |
| Nc1ccc(O)c(C(=O)O)c1 [Mesalamine] | – | 0 |
| O=S(=O)(O)CCS [Mesna] | – | 24.6 |
| CN1CCCCC1CCN1c2ccccc2Sc2ccc([S+](C)[O-])cc21 (centres unmarked) [Mesoridazine Besylate] | – | 6.43 |
| C#C[C@]1(O)CC[C@H]2[C@@H]3CCc4cc(OC)ccc4[C@H]3CC[C@@]21C [Mestranol] | – | 0 |
| CC(C)NCC(O)c1cc(O)cc(O)c1 (centres unmarked) [Metaproterenol Sulfate] | – | 2.56 |
| C[C@H](N)[C@H](O)c1cccc(O)c1 [Metaraminol Bitartrate] | – | 8.05 |
| Cc1cc(C)cc(OCC2CNC(=O)O2)c1 (centres unmarked) [Metaxalone] | – | 0 |
| CN(C)C(=N)NC(=N)N [Metformin HCl] | – | 32.6 |

| Compound | %inhibition [%] | inhibition at 100 µM [%] |
| --- | --- | --- |
| CC(=O)OC(C)C[N+](C)(C)C (centres unmarked) [Methacholine chloride] | – | 8.52 |
| C=C1c2cccc(O)c2C(=O)C2=C(O)[C@]3(O)C(=O)C(C(N)=O)=C(O)[C@@H](N(C)C)[C@@H]3[C@@H](O)[C@H]12 [Methacycline HCl] | – | 0 |
| CC(=O)/N=c1/sc(S(N)(=O)=O)nn1C [Methazolamide] | – | 0 |
| C1N2CN3CN1CN(C2)C3 [Methenamine] | – | 1.76 |
| Cn1ccnc1S [Methimazole] | – | 0 |
| COc1ccccc1OCC(O)COC(N)=O (centres unmarked) [Methocarbamol] | – | 36.3 |
| CN(Cc1cnc2nc(N)nc(N)c2n1)c1ccc(C(=O)N[C@@H](CCC(=O)O)C(=O)O)cc1 [Methotrexate disodium] | 0 | – |
| CN(Cc1cnc2nc(N)nc(N)c2n1)c1ccc(C(=O)N[C@@H](CCC(=O)O)C(=O)O)cc1 [Methotrexate] | 59.68 | – |
| COc1c2occc2cc2ccc(=O)oc12 [Methoxsalen] | – | 14.7 |
| CNC(C)Cc1ccccc1OC (centres unmarked) [Methoxyphenamine Hydrochloride] | – | 0 |
| C[N+]1(C)[C@@H]2C[C@@H](OC(=O)[C@H](CO)c3ccccc3)C[C@H]1[C@@H]1O[C@@H]12 [Methscopolamine] | – | 0 |
| CN1C(CCl)Nc2cc(Cl)c(S(N)(=O)=O)cc2S1(=O)=O (centres unmarked) [Methyclothiazide] | – | 0 |
| COC(=O)CCC(=O)CN [Methyl Aminolevulinate Hydrochloride] | – | 3.98 |
| COC(=O)c1ccccc1O [Methyl salicylate] | – | 7.14 |
| CC[N+](C)(CC)CCOC(=O)C(O)(c1ccccc1)c1ccccc1 [Methylbenactyzine Bromide] | – | 9.38 |
| C[C@](N)(Cc1ccc(O)c(O)c1)C(=O)O [Methyldopa] | – | 8.62 |
| CN(C)c1ccc2nc3ccc(=[N+](C)C)cc-3sc2c1 [Methylene Blue] | – | 43.3 |
| C[C@H]1C[C@@H]2[C@H]([C@@H](O)C[C@@]3(C)[C@H]2CC[C@]3(O)C(=O)CO)[C@@]2(C)C=CC(=O)C=C12 [Methylprednisolone] | – | 39.6 |
| Cc1cc(=O)[nH]c(=S)[nH]1 [Methylthiouracil] | – | 0 |
| Cc1cc2c(cc1S(N)(=O)=O)S(=O)(=O)CCC2 [Meticrane] | – | 0 |
